Test [1] relates to NLRP3 inflammasome (IL-1β production in THP-1 cells). Nature of the test: IL-1β TR-FRET Assay (percentage of inhibition at 300 nM, 6 μM or 10 μM). It counts as cell-based, human. The settings on record: Homo sapiens, LPS priming, ATP activation; for inhibition at 0.3 µM: THP-1, 300 nM, read-out: IL-1β inhibitory rate at 300 nM (%); for inhibition at 6 µM: THP-1, 6 μM, read-out: IL-1β inhibitory rate at 6 μM (%). The gist of the method:
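THP-1 cells were differentiated with 25 ng/mL IFN-γ for 24 h, primed with 50 ng/mL LPS in serum-free medium for 24 h, then given compound for 30 min before 20 mM ATP for 2 h. Supernatant IL-1β was measured by HTRF after 16-24 h at room temperature. Inhibition was normalized between DMSO (high) and 3 μM MCC-950 (low).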

Test [2] relates to TNF-α (NF-κB pathway, THP-1 cells). Nature of the test: TNF-α Assay (IC50). To be noted: Homo sapiens, 600 ng/mL LPS, 3 hours. The class given is cell-based, human. The method, boiled down: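 THP-1 cells differentiated to macrophages with 25 ng/mL IFN for 24 h, plated 40,000/well in serum-free medium, preincubated with compounds 30 min at 37 °C, then stimulated with 600 ng/mL LPS for 3 h. Supernatant TNF-α measured by ELISA; IC50 from four-parameter logistic fit, 100% inhibition defined by TPCA-1.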

A value given as a limit tells only on which side of the number the result lay.

The term IC50 denotes the concentration that gives 50% inhibition. A lower IC50 goes with greater potency in that assay. Consider `CCOc1nc2nn(-c3ncc(Br)cc3Br)cc2c(=O)[nH]1` [Example 161, 2-(3,5-dibromopyridin-2-yl)-6-ethoxy-2,5-dihydro-4H-pyrazolo[3,4-d]pyrimidin-4-one], for which the inhibition at 0.3 µM in test [1] amounted to 97%. The compound also displayed an IC50 in test [2] above 30 µM.

Regarding `COCCOc1nc2nn(-c3c(C)cc(Br)cc3C(F)F)cc2c(=O)[nH]1` [Example 215, 2-[4-bromo-2-(difluoromethyl)-6-methylphenyl]-6-(2-methoxyethoxy)-2,5-dihydro-4H-pyrazolo[3,4-d]pyrimidin-4-one], the inhibition at 0.3 µM in test [1] is 105%. In test [2], this compound returned an IC50 above 30 µM.

As for `CCOc1nc2nn(-c3c(C)cc(Br)cc3C(F)F)cc2c(=O)[nH]1` [Example 213, 2-[4-bromo-2-(difluoromethyl)-6-methylphenyl]-6-ethoxy-2,5-dihydro-4H-pyrazolo[3,4-d]pyrimidin-4-one], the inhibition at 0.3 µM in test [1] is 104%. Also, in test [2], the IC50 was above 30 µM.

`Cc1nc(-c2nc3nn(-c4c(F)cc(C5CC5)cc4C(F)F)cc3c(=O)[nH]2)co1` [Example 298, 2-[4-cyclopropyl-2-(difluoromethyl)-6-fluorophenyl]-6-(2-methyl-1,3-oxazol-4-yl)-2,5-dihydro-4H-pyrazolo[3,4-d]pyrimidin-4-one]: in test [1], the inhibition at 6 µM came to 99%. Moreover, the IC50 in test [2] is above 30 µM.

Turning to `O=c1[nH]c([C@@H]2COCCO2)nc2nn(-c3c(F)cc(C4CC4)cc3C(F)F)cc12` (single isomer, unassigned) [Example 313, 2-[4-cyclopropyl-2-(difluoromethyl)-6-fluorophenyl]-6-[(2S)-1,4-dioxan-2-yl]-2,5-dihydro-4H-pyrazolo[3,4-d]pyrimidin-4-one or 2-[4-cyclopropyl-2-(difluoromethyl)-6-fluorophenyl]-6-[(2R)-1,4-dioxan-2-yl]-2,5-dihydro-4H-pyrazolo[3,4-d]pyrimidin-4-one], the inhibition at 6 µM in test [1] worked out at 104%. In addition, the IC50 in test [2] was above 30 µM.

Take `CCOc1nc2nn(-c3ccc(C(C)C)cc3O)c(C)c2c(=O)[nH]1` [Example 44, 6-ethoxy-2-[2-hydroxy-4-(propan-2-yl)phenyl]-3-methyl-2,5-dihydro-4H-pyrazolo[3,4-d]pyrimidin-4-one]: the inhibition at 0.3 µM in test [1] came out at 101%. The IC50 in test [2] is above 30 µM.

Turning to `CCOc1nc2nn(-c3ccc(Cl)cc3O)c(C)c2c(=O)[nH]1` [Example 60, 2-(4-chloro-2-hydroxyphenyl)-6-ethoxy-3-methyl-2,5-dihydro-4H-pyrazolo[3,4-d]pyrimidin-4-one], the inhibition at 0.3 µM in test [1] was found to be 100%. The IC50 in test [2] is above 30 µM.

`CCOc1nc2nn(-c3c(C)cc(OC(F)F)cc3F)cc2c(=O)[nH]1` [Example 109]: the inhibition at 0.3 µM in test [1] was found to be 99%. In test [2], this compound yielded a concentration for half-maximal inhibition (IC50) above 30 µM.

In the case of `CCOc1nc2nn(-c3c(F)cc(C)c(F)c3C)cc2c(=O)[nH]1` [Example 92, 2-(3,6-difluoro-2,4-dimethylphenyl)-6-ethoxy-2,5-dihydro-4H-pyrazolo[3,4-d]pyrimidin-4-one], the inhibition at 0.3 µM in test [1] turned out to be 82%. Besides, in test [2], the IC50 was above 30 µM.

Turning to `COCCn1ccc(-c2nc3nn(-c4c(C)cc(C5CC5)cc4C)cc3c(=O)[nH]2)n1` [Example 278, 2-(4-cyclopropyl-2,6-dimethylphenyl)-6-[1-(2-methoxyethyl)-1H-pyrazol-3-yl]-2,5-dihydro-4H-pyrazolo[3,4-d]pyrimidin-4-one], in test [1], the inhibition at 6 µM was 95%. Also, the IC50 in test [2] is above 30 µM.

Turning to `CCOc1cc(F)c(-n2cc3c(=O)[nH]c(OCC)nc3n2)c(Br)c1` [Example 158, 2-(2-bromo-4-ethoxy-6-fluorophenyl)-6-ethoxy-2,5-dihydro-4H-pyrazolo [3,4-d]pyrimidin-4-one], in test [1], the inhibition at 0.3 µM is 99%. This compound also returned an IC50 in test [2] above 30 µM.

For the compound `COc1nc2nn(-c3c(C)cc(C4CC4)cc3C)cc2c(=O)[nH]1` [Example 146, 2-(4-cyclopropyl-2,6-dimethylphenyl)-6-methoxy-2,5-dihydro-4H-pyrazolo[3,4-d]pyrimidin-4-one], the inhibition at 0.3 µM in test [1] was determined as 94%. This compound also displayed an IC50 in test [2] above 30 µM.

`COc1nc2nn(-c3c(C)cc(C)cc3O)cc2c(=O)[nH]1` [Example 3, 2-(2-hydroxy-4,6-dimethylphenyl)-6-methoxy-2,5-dihydro-4H-pyrazolo[3,4-d]pyrimidin-4-one]: the inhibition at 0.3 µM in test [1] was 94%. In test [2], this compound yielded an IC50 above 30 µM.

Regarding `Cc1ccc(-n2cc3c(=O)[nH]c(OCC(C)O)nc3n2)c(C)c1` (racemic) [Example 89, 2-(2,4-dimethylphenyl)-6-(2-hydroxypropoxy)-2,5-dihydro-4H-pyrazolo[3,4-d]pyrimidin-4-one], in test [1], the inhibition at 0.3 µM came to 79%. Moreover, in test [2], the IC50 is above 30 µM.

In the case of `COc1nc2nn(-c3c(C)cc(OC(F)F)cc3C(F)F)cc2c(=O)[nH]1` [Example 284, 2-[4-(difluoromethoxy)-2-(difluoromethyl)-6-methylphenyl]-6-methoxy-2,5-dihydro-4H-pyrazolo[3,4-d]pyrimidin-4-one], in test [1], the inhibition at 6 µM was 103%. In test [2], this compound yielded an IC50 above 30 µM.

Consider `CCOc1nc2nn(-c3c(C)cc(CC)cc3F)cc2c(=O)[nH]1` [Example 122, 6-ethoxy-2-(4-ethyl-2-fluoro-6-methylphenyl)-2,5-dihydro-4H-pyrazolo[3,4-d]pyrimidin-4-one], for which, in test [1], the inhibition at 0.3 µM was 99%. This compound also registered an IC50 in test [2] above 30 µM.

For the compound `COc1nc2nn(-c3c(C)cc(Br)cc3C)cc2c(=O)[nH]1` [Example 138, 2-(4-bromo-2,6-dimethylphenyl)-6-methoxy-2,5-dihydro-4H-pyrazolo[3,4-d]pyrimidin-4-one], in test [1], the inhibition at 0.3 µM came out at 93%. The compound also had a half-maximal inhibitory concentration (IC50) in test [2] above 30 µM.

For the compound `Cc1cc(C)c(-n2cc3c(=O)[nH]c(C4(C)CC4)nc3n2)c(O)c1` [Example 25, 2-(2-hydroxy-4,6-dimethylphenyl)-6-(1-methylcyclopropyl)-2,5-dihydro-4H-pyrazolo[3,4-d]pyrimidin-4-one], the inhibition at 0.3 µM in test [1] worked out at 100%. Besides, in test [2], the IC50 is above 30 µM.

As for `COC(C)Cc1nc2nn(-c3c(C)cc(C)cc3O)cc2c(=O)[nH]1` (centres unmarked) [Example 27, 2-(2-hydroxy-4,6-dimethylphenyl)-6-(2-methoxypropyl)-2,5-dihydro-4H-pyrazolo[3,4-d]pyrimidin-4-one], in test [1], the inhibition at 0.3 µM was found to be 94%. Besides, in test [2], the IC50 was above 30 µM.

In the case of `Cc1nccc(-c2nc3nn(-c4c(C)cc(C5CC5)cc4C)cc3c(=O)[nH]2)n1` [Example 287, 2-(4-cyclopropyl-2,6-dimethylphenyl)-6-(2-methylpyrimidin-4-yl)-2,5-dihydro-4H-pyrazolo[3,4-d]pyrimidin-4-one], the inhibition at 6 µM in test [1] is 99%. Further, the IC50 in test [2] is above 30 µM.

`CCOc1nc2nn(-c3c(C)cc(C4CC4)cc3C(F)F)cc2c(=O)[nH]1` [Example 216, 2-[4-cyclopropyl-2-(difluoromethyl)-6-methylphenyl]-6-ethoxy-2,5-dihydro-4H-pyrazo lo[3,4-d]pyrimidin-4-one]: in test [1], the inhibition at 0.3 µM stood at 104%. Moreover, the IC50 in test [2] is above 30 µM.

As to `CCOc1nc2nn(-c3c(F)cc(C)cc3CC(F)(F)F)cc2c(=O)[nH]1` [Example 134, 6-ethoxy-2-[2-fluoro-4-methyl-6-(2,2,2-trifluoroethyl)phenyl]-2,5-dihydro-4H-pyrazolo[3,4-d]pyrimidin-4-one], the inhibition at 0.3 µM in test [1] stood at 96%. For the same compound, the IC50 in test [2] is above 30 µM.

`Cc1cc(C)c(-n2cc3c(=O)[nH]c(-c4cccn(C)c4=O)nc3n2)c(O)c1` [Example 66, 2-(2-hydroxy-4,6-dimethylphenyl)-6-(1-methyl-2-oxo-1,2-dihydropyridin-3-yl)-2,5-dihydro-4H-pyrazolo[3,4-d]pyrimidin-4-one]: the inhibition at 0.3 µM in test [1] was 97%. Also, the IC50 in test [2] is above 30 µM.

For the compound `CCOc1nc2nn(-c3c(F)cc(OC(F)(F)F)cc3Br)cc2c(=O)[nH]1` [Example 104, 2-[2-bromo-6-fluoro-4-(trifluoromethoxy)phenyl]-6-ethoxy-2,5-dihydro-4H-pyrazolo[3,4-d]pyrimidin-4-one], the inhibition at 0.3 µM in test [1] stood at 99%. For the same compound, in test [2], the IC50 was above 30 µM.

`Cc1cc(C)c(-n2cc3c(=O)[nH]c(OCC(F)(F)F)nc3n2)c(O)c1` [Example 55, 2-(2-hydroxy-4,6-dimethylphenyl)-6-(2,2,2-trifluoroethoxy)-2,5-dihydro-4H-pyrazolo[3,4-d]pyrimidin-4-one]: the inhibition at 0.3 µM in test [1] amounted to 98%. Also, the IC50 in test [2] is above 30 µM.

Turning to `CCOc1nc2nn(-c3ccc(C)cc3O)c(C)c2c(=O)[nH]1` [Example 127, 6-ethoxy-2-(2-hydroxy-4-methylphenyl)-3-methyl-2,5-dihydro-4H-pyrazolo[3,4-d]pyrimidin-4-one], the inhibition at 0.3 µM in test [1] is 98%. This compound yielded an IC50 in test [2] above 30 µM.

Take `CCOc1nc2nn(-c3c(F)cc(C)cc3CC)cc2c(=O)[nH]1` [Example 76, 6-ethoxy-2-(2-ethyl-6-fluoro-4-methylphenyl)-2,5-dihydro-4H-pyrazolo[3,4-d]pyrimidin-4-one]: the inhibition at 0.3 µM in test [1] stood at 94%. The half-maximal inhibitory concentration (IC50) in test [2] is above 30 µM.

In the case of `Cc1cc(C2CC2)cc(C)c1-n1cc2c(=O)[nH]c(COC(F)F)nc2n1` [Example 224, 2-(4-cyclopropyl-2,6-dimethylphenyl)-6-[(difluoromethoxy)methyl]-2,5-dihydro-4H-pyrazolo[3,4-d]pyrimidin-4-one], the inhibition at 0.3 µM in test [1] stood at 104%. This compound also showed an IC50 in test [2] above 30 µM.

The record behind these values is patent US20260297092A1, “PYRAZOLOPYRIMIDINE DERIVATIVES AS INHIBITORS OF NLRP3” (Takeda Pharmaceutical Company Limited, priority 2023, published 2026).
